According to patent publication US20240226098A1, “COMPOUNDS AND METHODS FOR MODULATING SPLICING” (REMIX THERAPEUTICS INC., priority 2020, published 2024):

Columns and labels:
Assay type in all cases: cell-based
[1] = test system: HTT mRNA, alternative junction (AJ); test: Splicing assay (RT-qPCR): increase in HTT alternative junction (AJ) mRNA; details: A673 or K562 cell line, 24 hours treatment, top dose 10 uM; concentration having 50% response in AJ increase
Experimental: (§1) Compounds described herein were used to modulate RNA transcript abundance in cells. The expression of a target mRNA was measured by detecting the formation of an exon-exon junction in the canonical transcript (CJ). A compound mediated exon-inclusion event was detected by observing an increase in formation of a new junction with an alternative exon (AJ). Real-time qPCR assays were used to detect these splicing switches and interrogate the potency of various compounds towards different target genes. A high-throughput real time quantitative PCR (RT-qPCR) assay was developed to measure these two isoforms of the mRNA (CJ and AJ) for an exemplary gene, HTT, together with a control housekeeping gene, GAPDH or GUSB or PPIA, used for normalization. Briefly, the A673 or K562 cell line was treated with various compounds described herein (e.g., compounds of Formula (I)). After treatment, the levels of the HTT mRNA targets were determined from each sample of cell lysate by cDNA synthesis followed by qPCR.
(§2) • Cells-to-CT 1-step kit: ThermoFisher A25602, Cells-to-CT lysis reagent: ThermoFisher 4391851C, TaqMan™ Fast Virus 1-Step Master Mix: ThermoFisher 4444436 • GAPDH: VIC-PL, ThermoFisher 4326317E (Assay: Hs99999905_ml)—used for K562/suspension cell lines • GUSB: VIC-PL, ThermoFisher 4326320E (Assay: Hs99999908_ml)—used for K562/suspension cell lines • PPIA: VIC-PL, ThermoFisher 4326316E (Assay: Hs99999904_ml)—used for A673/adherent cell lines
(§3) The A673 cell line was cultured in DMEM with 10% FBS. Cells were diluted with full growth media and plated in a 96-well plate (15,000 cells in 100 ul media per well). The plate was incubated at 37° C. with 5% CO2 for 24 hours to allow cells to adhere. An 11-point 3-fold serial dilution of the compounds was made in DMSO then diluted in media in an intermediate plate. Compounds were transferred from the intermediate plate to the cell plate with the top dose at a final concentration of 10 uM in the well. Final DMSO concentration was kept at or below 0.25%. The cell plate was returned to the incubator at 37° C. with 5% CO2 for an additional 24 hours.
(§4) The K562 cell line was cultured in IMDM with 10% FBS. For K562, cells were diluted with full growth media and plated in either a 96-well plate (50,000 cells in 50 uL media per well) or a 384-well plate (8,000-40,000 cells in 45 uL media per well). An 11-point 3-fold serial dilution of the compounds were made in DMSO then diluted in media in an intermediate plate. Compound was transferred from the intermediate plate to the cell plate with the top dose at a final concentration of 10 uM in the well. Final DMSO concentration was kept at or below 0.25%. Final volume was 100 uL for 96-well plate and 50 uL for 384-well plate. The cell plate was then placed in an incubator at 37° C. with 5% CO2 for 24 hours.
(§5) The cells were then gently washed with 50 uL-100 uL cold PBS before proceeding to addition of lysis buffer. 30 uL-50 uL of room temperature lysis buffer with DNAse I (and optionally RNAsin) was added to each well. Cells were shaken/mixed thoroughly at room temperature for 5-10 minutes for lysis to take place and then 3 uL-5 uL of room temperature stop solution was added and wells were shaken/mixed again. After 2-5 minutes, the cell lysate plate was transferred to ice for RT-qPCR reaction setup. The lysates could also be frozen at −80° C. for later use.
(§6) In some cases, a direct lysis buffer was used. An appropriate volume of 3× lysis buffer (10 mM Tris, 150 mM NaCl, 1.5%-2.5% Igepal and 0.1-1 U/uL RNAsin, pH 7.4) was directly added to either K562 or A673 cells in media and mixed by pipetting 3 times. The plates were then incubated at room temperature with shaking/rocking for 20-50 minutes to allow for lysis to take place. After this time, the cell lysate plate was transferred to ice to set up for the RT-qPCR reactions. The lysates could also be frozen at −80° C. for later use. […]

Target C CJ mRNA = test: Gene panel canonical junction qPCR assay: decrease in Target C CJ mRNA; details: protocol as for Table 2, read-out: Target C (IC50, decrease in CJ mRNA levels)
Experimental: as §1, §3, §4, §5
(§7) In some cases, a direct lysis buffer was used. An appropriate volume of 3× lysis buffer (10 mM Tris, 150 mM NaCl, 1.5%-2.5% Igepal and 0.1-1 U/uL RNAsin, pH 7.4) was directly added to either K562 or A673 cells in media and mixed by pipetting 3 times. The plates were then incubated at room temperature with shaking/rocking for 20-50 minutes to allow for lysis to take place. After this time, the cell lysate plate was transferred to ice to set up for the RT-qPCR reactions. The lysates could also be frozen at −80° C. for later use.
(§8) To set up 10 uL RT-qPCR reactions, cell lysates were transferred to 384-well qPCR plates containing the master mix according to the table below. The plates were sealed, gently vortexed, and spun down before the run. The volumes were adjusted accordingly in some instances where the reaction was carried in 20 uL. The table below summarizes the components of the RT-qPCR reactions:
(§9) The RT-qPCR reaction was performed using a QuantStudio (ThermoFisher) under the following fast cycling conditions. […]

HTT CJ mRNA = test: Gene panel canonical junction qPCR assay: decrease in HTT CJ mRNA; details: protocol as for Table 2, read-out: HTT (IC50, decrease in CJ mRNA levels)
Experimental: as §1, §3, §4, §5, §7, §8, §9

SMN2 CJ mRNA = test: Gene panel canonical junction qPCR assay: decrease in SMN2 CJ mRNA; details: protocol as for Table 2, read-out: SMN2 (IC50, decrease in CJ mRNA levels)
Experimental: as §1, §3, §4, §5, §7, §8, §9

[2] = test system: HTT mRNA, canonical junction (CJ); test: Splicing assay (RT-qPCR): decrease in HTT canonical junction (CJ) mRNA; details: A673 or K562 cell line, 24 hours treatment, top dose 10 uM; concentration having 50% response in CJ decrease
Experimental: as §1, §2, §3, §4, §5, §6

Structure (SMILES)	AC50 [1] [nM]	IC50 (Target C CJ mRNA) [nM]	IC50 (HTT CJ mRNA) [nM]	IC50 (SMN2 CJ mRNA) [nM]	AC50 [2] [nM]
Cc1cn2cc(NC(=O)c3ccc(N4CCNC(C)C4)c4ccnnc34)cc(F)c2n1 (stereo in doubt) [Compound 146, N-[8-fluoro-2-methylimidazo[1,2-a]pyridin-6-yl]-5-[(3S)-3-methylpiperazin-1-yl]cinnoline-8-carboxamide]	100 to 1000	> 10000	100 to 1000	< 100	100 to 1000
Cc1cn2cc(NC(=O)c3ccc(C4CCNCC4)c4ccnnc34)cc(F)c2n1 [Compound 103, N-[8-fluoro-2-methylimidazo[1,2-a]pyridin-6-yl]-5-(piperidin-4-yl) cinnoline-8-carboxamide]	100 to 1000	1000 to 10000	100 to 1000	1000 to 10000	1000 to 10000
Cc1cn2cc(NC(=O)c3ccc(N4CCN5CCCC5C4)c4ccnnc34)cc(F)c2n1 (stereo in doubt) [Compound 154, 5-[(8aR)-hexahydro-1H-pyrrolo[1,2-a]pyrazin-2-yl]-N-[8-fluoro-2-methylimidazo[1,2-a]pyridin-6-yl]cinnoline-8-carboxamide]	1000 to 10000	100 to 1000	1000 to 10000	< 100	1000 to 10000
CCC1CN(c2ccc(C(=O)Nc3cc(F)c4nc(C)cn4c3)c3nnccc23)CCN1 (stereo in doubt) [Compound 151, 5-[(3S)-3-ethylpiperazin-1-yl]-N-[8-fluoro-2-methylimidazo[1,2-a]pyridin-6-yl]cinnoline-8-carboxamide]	1000 to 10000	> 10000	1000 to 10000	< 100	1000 to 10000
Cc1cn2cc(NC(=O)c3ccc(N4CCC(NC(C)(C)C)CC4)c4ccnnc34)cc(F)c2n1 [Compound 138, 5-[4-(tert-butylamino)piperidin-1-yl]-N-[8-fluoro-2-methylimidazo[1,2-a]pyridin-6-yl]cinnoline-8-carboxamide]	1000 to 10000	1000 to 10000	1000 to 10000	< 100	1000 to 10000
Cc1cn2cc(NC(=O)c3ccc(N4CCNCC4)c4ccnnc34)ncc2n1 [Compound 120, N-[2-methylimidazo[1,2-a]pyrazin-6-yl]-5-(piperazin-1-yl) cinnoline-8-carboxamide]	> 10000	> 10000	> 10000	< 100	> 10000
O=C(Nc1cn[nH]c1)c1ccc(N2CCNCC2)c2ccnnc12 [Compound 126, 5-(piperazin-1-yl)-N-(1H-pyrazol-4-yl)cinnoline-8-carboxamide]	> 10000	> 10000	> 10000	> 10000	> 10000
Cc1cn2cc(NC(=O)c3ccc(N4CCNCC4)c4nccnc34)cc(F)c2n1 [Compound 111, N-[8-fluoro-2-methylimidazo[1,2-a]pyridin-6-yl]-8-(piperazin-1-yl) quinoxaline-5-carboxamide]	1000 to 10000	100 to 1000	1000 to 10000	< 100	1000 to 10000
Cc1cn2nc(NC(=O)c3ccc(N4CCNCC4)c4ccnnc34)nc2c(C)n1 [Compound 122]	1000 to 10000	1000 to 10000	1000 to 10000	1000 to 10000	1000 to 10000
Cc1cn2nc(NC(=O)c3ccc(N4CCNCC4)c4ccnnc34)cc(C)c2n1 [Compound 100, N-[2,8-dimethylimidazo[1,2-b]pyridazin-6-yl]-5-(piperazin-1-yl)cinnoline-8-carboxamide]	100 to 1000	100 to 1000	100 to 1000	100 to 1000	100 to 1000
Cc1cn2cc(NC(=O)c3ccc(N4CCNCC4)c4ccnnc34)cc(Cl)c2n1 [Compound 124, N-[8-chloro-2-methylimidazo[1,2-a]pyridin-6-yl]-5-(piperazin-1-yl)cinnoline-8-carboxamide]	1000 to 10000	1000 to 10000	1000 to 10000	< 100	1000 to 10000
Cc1cn2nc(NC(=O)c3ccc(C4CCNCC4)c4ccnnc34)cc(C)c2n1 [Compound 113, N-[2,8-dimethylimidazo[1,2-b]pyridazin-6-yl]-5-(piperidin-4-yl) cinnoline-8-carboxamide]	1000 to 10000	1000 to 10000	1000 to 10000	100 to 1000	1000 to 10000
Cc1cn2cc(NC(=O)c3ccc(N4C[C@H]5C[C@@H]4C5N(C)C)c4ccnnc34)cc(F)c2n1 (stereo partly shown) [Compound 155]	> 10000	> 10000	> 10000	100 to 1000	> 10000
Cc1cn2cc(NC(=O)c3ccc(N4CCN5CCCC5C4)c4ccnnc34)cc(F)c2n1 (stereo in doubt) [Compound 153, 5-[(8aS)-hexahydro-1H-pyrrolo[1,2-a]pyrazin-2-yl]-N-[8-fluoro-2-methylimidazo[1,2-a]pyridin-6-yl]cinnoline-8-carboxamide]	100 to 1000	1000 to 10000	100 to 1000	< 100	100 to 1000
Cc1cn2cc(NC(=O)c3ccc(N4CCC(N(C)C)CC4)c4ccnnc34)cc(F)c2n1 [Compound 137, 5-[4-(dimethylamino)piperidin-1-yl]-N-[8-fluoro-2-methylimidazo[1,2-a]pyridin-6-yl] cinnoline-8-carboxamide]	100 to 1000	100 to 1000	100 to 1000	< 100	100 to 1000
Cc1cn2cc(NC(=O)c3ccc(N4C[C@H]5CC[C@@H](C4)N5)c4ccnnc34)cc(F)c2n1 [Compound 108]	1000 to 10000	100 to 1000	1000 to 10000	< 100	1000 to 10000
Cc1cn2cc(NC(=O)c3ccc(C4CCN(C)CC4)c4ccnnc34)cc(F)c2n1 [Compound 140, N-[8-fluoro-2-methylimidazo[1,2-a]pyridin-6-yl]-5-(1-methylpiperidin-4-yl) cinnoline-8-carboxamide]	1000 to 10000	> 10000	1000 to 10000	< 100	1000 to 10000
